For two compounds, Kd results are on record in paper PMC7057962, “The Two-Species Model of transketolase explains donor substrate-binding, inhibition and heat-activation” (Scientific Reports, 2020).

Read-outs that look alike come from different tables or passages of the source.

Assay [1] concerns the target T1, E. coli transketolase (TK; TKhigh / TKlow forms) (Escherichia coli, UniProt P27302).
T1 construct: gene tktA; N-terminal His6 tag, expressed in E. coli XL10-gold from pQR791; homodimer; purified sample is a mix of TKhigh (oxidised) and TKlow subunits
As to the kind of experiment: intrinsic fluorescence quenching (ex […] nm, em […] nm), double-Hill fit. Format: binding. The following applies: read-out: Kd(high)^HPA.

Assay [2] has as its target T2, E. coli transketolase (TK; TKhigh / TKlow forms) (Escherichia coli, UniProt P27302, D469T/R520Q/S385Y).
T2 construct: gene tktA; N-terminal His6 tag, expressed in E. coli XL10-gold from pQR791; homodimer; purified sample is a mix of TKhigh (oxidised) and TKlow subunits
The description is as above. It counts as binding.

T2 sequence (P27302 whole entry S385Y/D469T/R520Q): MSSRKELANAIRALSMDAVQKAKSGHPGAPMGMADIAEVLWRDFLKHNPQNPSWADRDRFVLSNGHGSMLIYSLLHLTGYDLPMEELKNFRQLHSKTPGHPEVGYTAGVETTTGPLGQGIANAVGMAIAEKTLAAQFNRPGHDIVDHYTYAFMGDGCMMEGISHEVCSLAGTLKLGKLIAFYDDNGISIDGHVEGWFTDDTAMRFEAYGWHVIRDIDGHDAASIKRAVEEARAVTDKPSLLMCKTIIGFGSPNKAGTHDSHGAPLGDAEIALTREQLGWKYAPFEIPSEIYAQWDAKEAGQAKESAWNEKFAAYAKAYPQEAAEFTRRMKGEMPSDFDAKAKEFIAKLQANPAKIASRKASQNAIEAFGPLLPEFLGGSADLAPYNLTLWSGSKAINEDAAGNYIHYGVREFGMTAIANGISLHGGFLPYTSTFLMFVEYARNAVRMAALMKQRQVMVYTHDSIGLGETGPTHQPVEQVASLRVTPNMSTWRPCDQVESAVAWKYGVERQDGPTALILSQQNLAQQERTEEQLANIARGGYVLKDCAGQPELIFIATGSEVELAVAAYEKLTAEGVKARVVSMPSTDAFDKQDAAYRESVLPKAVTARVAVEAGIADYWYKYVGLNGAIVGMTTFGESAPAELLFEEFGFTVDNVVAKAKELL
T1 sequence (P27302 whole entry): as the sequence (P27302 whole entry S385Y/D469T/R520Q) above, with Y385S, T469D, Q520R counted along it

Consider `O=C(O)C(=O)CO` [HPA, β-hydroxypyruvate], for which the Kd (in general, the equilibrium constant for the complex coming apart) in assay [1] was determined as 3.42 ± 0.45 mM; in assay [2] (read-out: Kd(high)^HPA) it was 3.61 ± 0.31 mM.
With `Cc1ncc(C[n+]2csc(CCO[P@](=O)(O)OP(=O)(O)O)c2C)c(N)n1` [TPP, thiamine pyrophosphate], in assay [2] (read-out: Kd(high)^TPP), the Kd turned out to be 0.0066 ± 0.00164 mM.
